Results published in patent publication EP1037886B1, “TRIAZINE ANGIOGENESIS INHIBITORS” (Abbott Laboratories, priority 1997, dated 1999).

Each compound was assayed on Human Microvascular Endothelial Cells (HMVEC) (assay: Endothelial cell migration assay (bFGF induced, modified Boyden chamber)). Conditions: 600 nM test substance, 4 hours at 37 °C, percent inhibition of migration compared to a positive control.
Assay type: cell-based
Protocol: The endothelial cell migration assay was performed essentially as described by Polverini, P.J. et al., Methods Enzymol, 198: 440-450 (1991). Briefly, Human Microvascular Endothelial Cells (HMVEC) were starved overnight in DMEM (Dulbecco's Modified Eagle Medium) containing 0.1% bovine serum albumin (BSA). Cells were then harvested with trypsin and resuspended in DMEM with 0.1% BSA at a concentration of 1.5 x 10^6 cells/mL. Cells were added to the bottom of a 48-well modified Boyden chamber (Nucleopore Corporation, Cabin John, MD). The chamber was assembled and inverted, and cells were allowed to attach for 2 hours at 37 °C to polycarbonate chemotaxis membranes (5 µm pore size) that had been soaked in 0.1% gelatin overnight and dried. The chamber was then reinverted and basic fibroblast growth factor (bFGF) and test substances were added to the wells of the upper chamber (to a total volume of 50 µL); the apparatus was then incubated for 4 hours at 37 °C. Membranes were recovered, fixed and stained (DiffQuick, Fisher Scientific, Pittsburgh, PA) and the number of cells that had migrated to the upper chamber per 10 high power fields were counted. Background migration to DMEM + 0.1% BSA was subtracted and the data reported as the number of cells migrated per 10 high power fields (400X) or when results from multiple experiments were combined, as the percent inhibition of migration compared to a positive control.
`Nc1nc(N)nc(C23CC4CC(CC(C4)C2)C3)n1` [Example 52, 6-(tricyclo[3.3.1.1^3.7]decan-1-yl)-1,3,5-triazine-2,4-diamine] was tested, and the “% inhibition at (nM)” value was 100 (600) %.

Same assay, conditions: Homo sapiens, 200 nM test substance, 4 hours at 37 °C, percent inhibition of migration compared to a positive control
`Nc1nc(N)nc(C2CC3CCC2C3)n1` (stereo not drawn) [Example 65, 6-(bicyclo[2.2.1]hept-2-yl)-1,3,5-triazine-2,4-diamine] gave an inhibition at 0.2 µM of 32%.

Same assay, conditions: Homo sapiens, 500 nM test substance, 4 hours at 37 °C, percent inhibition of migration compared to a positive control
Work on `Nc1nc(N)nc(C2CCN(C(=O)c3ccccc3)CC2)n1` [Example 74, 6-(1-benzoyl-4-piperidinyl)-1,3,5-triazine-2,4-diamine] yielded an inhibition at 0.5 µM of 82%. Compound `CC(=O)Nc1nc(N)nc(-c2ccc(S(=O)(=O)c3ccccc3)cc2)n1` [Example 77, N-acetyl-6-[4-(phenylsulfonyl)phenyl]-1,3,5-triazine-2,4-diamine] has an inhibition at 0.5 µM of 50%. With `CNc1nc(NC)nc(-c2ccc(-c3ccccc3)cc2)n1` [Example 63, 6-[1,1'-biphenyl]-4-yl-N,N'-dimethyl-1,3,5-triazine-2,4-diamine] the inhibition at 0.5 µM was 79%. With `Nc1nc(N)nc(-c2ccc(Cl)nc2)n1` [Example 69, 6-(6-chloro-3-pyridinyl)-1,3,5-triazine-2,4-diamine] the inhibition at 0.5 µM was 39%. Compound `Nc1nc(N)nc(C2CCN(Cc3ccccc3)CC2)n1` [Example 75, 6-[1-(phenylmethyl)-4-piperidinyl]-1,3,5-triazine-2,4-diamine] has an inhibition at 0.5 µM of 16%. Compound `Cc1ccc(-c2nc(N)nc(N)n2)cn1` [Example 68, 6-(6-methyl-3-pyridinyl)-1,3,5-triazine-2,4-diamine] has an inhibition at 0.5 µM of 73%. Compound `CC(=O)Nc1nc(NC(C)=O)nc(-c2ccc(S(=O)(=O)c3ccccc3)cc2)n1` [Example 76, N,N'-diacetyl-6-[4-(phenylsulfonyl)phenyl]-1,3,5-triazine-2,4-diamine] has an inhibition at 0.5 µM of 33%.

Same assay, conditions: Homo sapiens, 600 nM test substance, 4 hours at 37 °C, percent inhibition of migration compared to a positive control
With `Nc1nc(N)nc(-c2ccc(Oc3ccccc3)cc2)n1` [Example 9, 6-(4-phenoxyphenyl)-1,3,5-triazine-2,4-diamine] the inhibition at 0.6 µM was 29%. With `Nc1nc(N)nc(C23CCN(CC2)CC3)n1` [Example 56, 6-(1-azabicyclo[2.2.2]octan-4-yl)-1,3,5-triazine-2,4-diamine] the inhibition at 0.6 µM was 30%. For `Nc1nc(N)nc(-c2nccc3ccccc23)n1` [Example 53, 6-(1-isoquinolinyl)-1,3,5-triazine-2,4-diamine], the inhibition at 0.6 µM was 85%. For `Nc1nc(N)nc(-c2ccccc2-c2ccccc2)n1` [Example 6, 6-[1,1'-biphenyl]-2-yl-1,3,5-triazine-2,4-diamine], the inhibition at 0.6 µM was 95%. Compound `Nc1nc(N)nc(-c2cnc3ccccc3c2)n1` [Example 48, 6-(3-quinolinyl)-1,3,5-triazine-2,4-diamine] has an inhibition at 0.6 µM of 55%. With `CCCCC[C@H]1CC[C@H](c2ccc(-c3nc(N)nc(N)n3)cc2)CC1` [Example 8, trans-6-[4-(4-pentylcyclohexyl)phenyl]-1,3,5-triazine-2,4-diamine] the inhibition at 0.6 µM was 30%. In the case of `Nc1nc(N)nc(-c2cccc(-n3cccc3)c2)n1` [Example 4, 6-[3-(1H-pyrrol-1-yl)phenyl]-1,3,5-triazine-2,4-diamine], the inhibition at 0.6 µM is reported as 62%. In the case of `Nc1nc(N)nc(-c2cnccn2)n1` [Example 60, 6-pyrazinyl-1,3,5-triazine-2,4-diamine], the inhibition at 0.6 µM is reported as 100%. `Nc1nc(N)nc([C@H]2CC[C@H](c3ccccc3)CC2)n1` [Example 3, trans-6-(4-phenylcyclohexyl)-1,3,5-triazine-2,4-diamine] was tested, and the inhibition at 0.6 µM was 100%. Compound `Nc1nc(N)nc(C2COc3ccccc3O2)n1` (stereo not drawn) [Example 51, 6-(2,3-dihydro-1,4-benzodioxin-2-yl)-1,3,5-triazine-2,4-diamine] has an inhibition at 0.6 µM of 100%. `Nc1nc(N)nc(-c2ccc(-c3ccc([N+](=O)[O-])cc3)cc2)n1` [Example 7, 6-(4'-nitro[1,1'-biphenyl]-4-yl)-1,3,5-triazine-2,4-diamine] gave an inhibition at 0.6 µM of 100%. Work on `Nc1nc(N)nc(-c2cc(Cl)ccc2Cl)n1` [Irsogladine, reference compound] yielded an inhibition at 0.6 µM of 53%. With `Nc1nc(N)nc(C2CN(C(c3ccccc3)c3ccccc3)C2)n1` [Example 1, 6-[1-(diphenylmethyl)-3-azetidinyl]-1,3,5-triazine-2,4-diamine] the inhibition at 0.6 µM was 20%. `Nc1nc(N)nc(-c2ccc3c(c2)OCCO3)n1` [Example 55, 6-(2,3-dihydro-1,4-benzodioxin-6-yl)-1,3,5-triazine-2,4-diamine] showed an inhibition at 0.6 µM of 84%. `Nc1nc(N)nc(Cc2cc3ccccc3s2)n1` [Example 49, 6-(benzo[b]thien-2-ylmethyl)-1,3,5-triazine-2,4-diamine] showed an inhibition at 0.6 µM of 14%. In the case of `Nc1nc(N)nc(-c2ccc3ccccc3n2)n1` [Example 47, 6-(2-quinolinyl)-1,3,5-triazine-2,4-diamine], the inhibition at 0.6 µM is reported as 65%. Compound `Nc1nc(N)nc(-c2ccc(S(=O)(=O)c3ccccc3)cc2)n1` [Example 58, 6-[4-(phenylsulfonyl)phenyl]-1,3,5-triazine-2,4-diamine] has an inhibition at 0.6 µM of 100%. `Nc1nc(N)nc(-c2ccc(NC(=O)NC3CCCCC3)cc2)n1` [Example 10, N-cyclohexyl-N'-[4-(4,6-diamino-1,3,5-triazin-2-yl)phenyl]urea] showed an inhibition at 0.6 µM of 29%. Compound `Nc1nc(N)nc(N2CCC3(CC2)OCCO3)n1` [Example 13, 6-(1,4-dioxa-8-azaspiro[4,5]dec-8-yl)-1,3,5-triazine-2,4-diamine] has an inhibition at 0.6 µM of 53%. Work on `Nc1nc(N)nc(-c2ccc(NC(=O)Nc3ccccc3)cc2)n1` [Example 12, N-[4-(4,6-diamino-1,3,5-triazin-2-yl)phenyl]-N'-phenyl urea] yielded an inhibition at 0.6 µM of 36%. `CC1(C)C=Cc2cc(-c3nc(N)nc(N)n3)ccc2O1` [Example 50, 6-(2,2-dimethyl-2H-1-benzopyran-6-yl)-1,3,5-triazine-2,4-diamine] gave an inhibition at 0.6 µM of 100%.
